Here are results for nine molecules from BindingDB's records for doi:10.7270/Q2930RK5 (University of Pittsburgh, 2008).

SMILES strings stand for the structures. Bounds are passed on as bounds.

The target of the experiment is Serine/threonine-protein kinase PLK1 (Homo sapiens, UniProt P53350). Nature of the experiment: activity against human Plk1 kinase – biochemical, selectivity assay for PKD inhibitor project, dose response (AID 1383).
Serine/threonine-protein kinase PLK1, sequence (P53350 whole entry): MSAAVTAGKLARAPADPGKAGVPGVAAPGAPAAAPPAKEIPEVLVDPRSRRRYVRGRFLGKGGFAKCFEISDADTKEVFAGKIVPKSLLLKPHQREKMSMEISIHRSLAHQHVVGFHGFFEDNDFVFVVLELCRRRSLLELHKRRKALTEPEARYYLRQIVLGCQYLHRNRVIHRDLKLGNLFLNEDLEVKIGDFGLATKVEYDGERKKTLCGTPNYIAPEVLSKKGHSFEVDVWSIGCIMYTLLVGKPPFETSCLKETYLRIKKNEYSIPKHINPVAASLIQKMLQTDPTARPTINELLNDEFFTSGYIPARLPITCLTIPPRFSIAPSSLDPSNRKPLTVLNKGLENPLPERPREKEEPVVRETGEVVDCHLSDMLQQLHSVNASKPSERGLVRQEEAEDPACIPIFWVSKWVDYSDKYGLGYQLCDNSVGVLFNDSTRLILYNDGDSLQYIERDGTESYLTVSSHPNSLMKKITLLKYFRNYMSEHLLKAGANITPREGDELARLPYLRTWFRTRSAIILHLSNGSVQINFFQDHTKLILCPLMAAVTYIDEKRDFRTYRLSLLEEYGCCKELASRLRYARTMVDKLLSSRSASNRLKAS
By IC50 is commonly meant the concentration needed to halve the response being measured. Low readings indicate greater potency, high ones weaker potency. For `O=C(Nc1ccc(CN2CCOCC2)cc1)c1ccc(-c2cccc(Cl)c2)o1` [MLS000557592], the IC50 was more than 50 µM.

For `CC(=O)Oc1cc(OC(C)=O)c2c(C)cc(=O)oc2c1` [(5-acetyloxy-4-methyl-2-oxochromen-7-yl) acetate], the IC50 was more than 50 µM.

Take `NC(=O)c1cn([C@@H]2O[C@H](CO)[C@@H](O)[C@H]2O)c2ncnc(N)c12` [MLS000517268]: it took 12.1 µM to reach half-maximal inhibition (IC50).

In turn, `CS(=O)(=O)N1CCN(c2ccccc2NC(=O)c2ccc(Br)o2)CC1` [MLS000123947] yielded an IC50 of more than 50 µM.

Molecule `CCC1=NNc2cccc3c(OC)ccc1c23` [SMR000140796] returned an IC50 of more than 50 µM.

Take `Cc1cc(NCCCN)nc(-c2ccccc2O)n1` [MLS000079650]: the IC50 was more than 50 µM.

With `N=C(N)NC(=O)c1nc(Cl)c(N)nc1N` [3,5-diamino-N-carbamimidoyl-6-chloropyrazine-2-carboxamide], the IC50 amounted to 6.63 µM. That is a single-digit micromolar value.

`Clc1cncc(Cl)c1N=NCc1ccncc1` [SMR000206620] showed an IC50 of more than 50 µM.

Molecule `CCC(=O)Nc1c2c(nn1-c1ccccc1C)CSC2` [MLS000087884] had an IC50 of more than 50 µM.
